Drawing on ChEMBL document CHEMBL5634072, “The recent advance of Interleukin-1 receptor associated kinase 4 inhibitors for the treatment of inflammation and related diseases” (Eur J Med Chem, 2023), this text covers EC50, IC50 and Activity for 12 molecules.

As a reminder, the EC50 is the concentration giving half of the maximal effect. A lower EC50 goes with an effect from little substance. What is called IC50 is the concentration at which inhibition is half-maximal.

The target of assay [1] is T1, Interleukin-1 receptor-associated kinase 4 (Homo sapiens, UniProt Q9NWZ3).
T1 sequence (Q9NWZ3 whole entry): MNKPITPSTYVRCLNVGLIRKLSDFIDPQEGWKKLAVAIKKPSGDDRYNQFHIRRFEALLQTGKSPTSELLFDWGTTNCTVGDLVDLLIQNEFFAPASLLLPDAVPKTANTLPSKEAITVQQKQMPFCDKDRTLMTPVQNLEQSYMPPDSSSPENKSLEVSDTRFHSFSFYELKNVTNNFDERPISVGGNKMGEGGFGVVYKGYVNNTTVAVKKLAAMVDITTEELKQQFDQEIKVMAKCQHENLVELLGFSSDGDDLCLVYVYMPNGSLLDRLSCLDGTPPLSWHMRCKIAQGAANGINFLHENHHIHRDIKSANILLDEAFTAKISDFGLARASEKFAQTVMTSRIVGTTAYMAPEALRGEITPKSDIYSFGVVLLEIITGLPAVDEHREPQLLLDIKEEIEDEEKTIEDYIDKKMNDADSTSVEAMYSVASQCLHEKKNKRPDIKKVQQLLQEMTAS
The assay is described as follows: Inhibition of IRAK4 (unknown origin).

Assay [2] has as its target T1, Interleukin-1 receptor-associated kinase 4. Briefly: Inhibition of IRAK4 (unknown origin) by discoverX kinome scan assay.
In assay [3] the target is T2, Protein cereblon/Interleukin-1 receptor-associated kinase 4 (Homo sapiens) (UniProt Q9NWZ3+Q96SW2). Briefly: PROTAC activity at CRBN/IRAK4 in human PBMC cells assessed as induction of degradation at 0.01 uM measured after 24 hrs by Immuno-blotting analysis relative to control. The assay is classed as cell-based.
Assay [4] deals with T2, Protein cereblon/Interleukin-1 receptor-associated kinase 4 (Homo sapiens). The assay is described as follows: PROTAC activity at CRBN/IRAK4 in human PBMC cells assessed as induction of degradation at 0.1 uM measured after 24 hrs by Immuno-blotting analysis relative to control. Format: cell-based.
For assay [5] the target is unchanged. The assay is described as follows: PROTAC activity at CRBN/IRAK4 in human PBMC cells assessed as induction of degradation at 1 uM measured after 24 hrs by Immuno-blotting analysis relative to control. Format: cell-based.
The target in assay [6] is T1, Interleukin-1 receptor-associated kinase 4. Briefly: Inhibition of IRAK4 (unknown origin) by Ambit kinase assay.
For assay [7], the target named is Protein cereblon/Interleukin-1 receptor-associated kinase 4 (Homo sapiens, UniProt Q96SW2+Q9NWZ3). Briefly: Binding affinity to CRBN/IRAK4 in human PBMC cells assessed as inhibition of LPS-stimulated IL-6 production incubated for 24 hrs by MSD analysis. Format: cell-based.
The target in a further assay is Cyclic GMP-AMP synthase (Homo sapiens, UniProt Q8N884). Briefly: Inhibition of cyclic GMP-AMP synthase (unknown origin).
For assay [8], the target named is Interleukin-1 receptor-associated kinase 1 (Homo sapiens, UniProt P51617). The assay is described as follows: Inhibition of IRAK1 (unknown origin) by Ambit kinase assay.

Where only a bound is given, the exact number is not on record here.

Sequence of Protein cereblon/Interleukin-1 receptor-associated kinase 4 (Q96SW2 whole entry, one chain of several): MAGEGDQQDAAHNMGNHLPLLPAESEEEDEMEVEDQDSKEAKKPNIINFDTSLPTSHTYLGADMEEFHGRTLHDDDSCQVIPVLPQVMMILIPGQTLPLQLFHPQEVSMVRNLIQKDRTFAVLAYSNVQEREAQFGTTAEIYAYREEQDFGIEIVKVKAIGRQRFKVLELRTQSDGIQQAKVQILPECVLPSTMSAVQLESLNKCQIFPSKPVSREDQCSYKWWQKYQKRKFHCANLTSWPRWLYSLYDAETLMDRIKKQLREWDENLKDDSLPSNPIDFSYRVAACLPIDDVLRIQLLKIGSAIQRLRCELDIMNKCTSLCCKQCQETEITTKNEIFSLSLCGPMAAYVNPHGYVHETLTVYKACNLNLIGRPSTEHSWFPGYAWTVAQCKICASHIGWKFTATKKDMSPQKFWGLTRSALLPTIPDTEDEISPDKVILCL
T2 sequence (Q96SW2 whole entry, looked up, one chain of several): as the sequence (Q96SW2 whole entry, one chain of several) above
Sequence of Cyclic GMP-AMP synthase (Q8N884 whole entry): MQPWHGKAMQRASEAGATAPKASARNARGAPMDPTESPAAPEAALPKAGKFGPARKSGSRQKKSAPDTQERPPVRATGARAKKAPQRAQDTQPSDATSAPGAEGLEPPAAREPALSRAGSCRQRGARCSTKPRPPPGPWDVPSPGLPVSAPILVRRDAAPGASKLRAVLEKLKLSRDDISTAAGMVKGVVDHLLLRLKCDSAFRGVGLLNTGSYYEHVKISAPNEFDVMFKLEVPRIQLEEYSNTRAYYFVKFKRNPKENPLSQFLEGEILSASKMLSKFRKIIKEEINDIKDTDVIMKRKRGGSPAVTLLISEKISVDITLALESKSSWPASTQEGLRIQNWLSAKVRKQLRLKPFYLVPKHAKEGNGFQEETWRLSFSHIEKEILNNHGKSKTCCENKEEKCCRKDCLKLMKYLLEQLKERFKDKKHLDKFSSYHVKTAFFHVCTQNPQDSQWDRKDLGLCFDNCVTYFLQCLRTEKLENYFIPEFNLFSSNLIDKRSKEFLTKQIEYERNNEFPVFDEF
Sequence of Interleukin-1 receptor-associated kinase 1 (P51617 whole entry): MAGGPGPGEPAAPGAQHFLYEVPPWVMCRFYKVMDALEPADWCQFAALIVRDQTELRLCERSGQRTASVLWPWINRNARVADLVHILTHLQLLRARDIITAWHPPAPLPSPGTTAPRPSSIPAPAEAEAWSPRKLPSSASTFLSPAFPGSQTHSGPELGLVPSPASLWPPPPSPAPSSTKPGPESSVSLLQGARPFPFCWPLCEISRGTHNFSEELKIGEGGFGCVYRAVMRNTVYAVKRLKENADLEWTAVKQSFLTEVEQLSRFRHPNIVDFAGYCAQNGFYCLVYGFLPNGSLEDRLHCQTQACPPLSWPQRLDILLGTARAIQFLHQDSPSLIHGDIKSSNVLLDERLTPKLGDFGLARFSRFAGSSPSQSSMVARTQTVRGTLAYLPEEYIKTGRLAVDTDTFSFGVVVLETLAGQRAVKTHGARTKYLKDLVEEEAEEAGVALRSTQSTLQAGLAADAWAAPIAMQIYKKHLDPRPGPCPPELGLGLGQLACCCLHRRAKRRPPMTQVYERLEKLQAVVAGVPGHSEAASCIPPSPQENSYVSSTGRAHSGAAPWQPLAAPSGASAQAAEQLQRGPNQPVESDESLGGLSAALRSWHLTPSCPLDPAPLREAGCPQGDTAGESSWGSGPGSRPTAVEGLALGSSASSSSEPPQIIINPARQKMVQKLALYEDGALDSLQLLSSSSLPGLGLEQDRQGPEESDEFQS

In [1], `CCO[C@H]1CC[C@@H](n2cc(NC(=O)c3csc(-c4cn[nH]c4)n3)c(-c3nc(F)ccc3F)n2)CC1` registered an EC50 of 195 nM.

As for `O=C1Nc2cn(C3CCOCC3)nc2C(=O)NCCOCCCc2cc(ccn2)-c2nc1cs2`, the IC50 in assay [2] is 1 nM. Consider `O=C1CCC(N2C(=O)c3cccc(NCc4cn(CCCNC(=O)c5ccc(-n6cc(NC(=O)c7coc(-c8ccnc(NCC9CC9)c8)n7)c(C(F)(F)F)n6)cc5)cn4)c3C2=O)C(=O)N1` (centres undefined), for which the Activity in assay [3] was less than 20%; in assay [4] it was more than 20%; in [5], more than 50%. For `CC(C)(O)CCn1cc2cc(NC(=O)c3cccc(C(F)(F)F)n3)c(C3COC3)cc2n1`, in assay [6], the 50% inhibitory concentration (IC50) was 1.6 nM. Take `O=C1Nc2nc3ccccc3n2Cc2cc(ccn2)-c2ccc(=O)n(n2)Cc2cccc1c2`: the IC50 in assay [7] was less than 100 nM.

`Cc1ccn2c(C(=O)C(=O)c3ccccc3)c(-c3ccccc3)nc2c1` had an IC50 at Cyclic GMP-AMP synthase of 2.1 nM.

Molecule `CN(C)[C@H]1CC[C@H](Oc2ncnc3sc4c(c23)[C@@H](CCC#N)CC4)CC1` returned an IC50 in assay [8] of less than 5000 nM. For `Cn1cc2c(n1)C(=O)NCCn1cc(cn1)-c1ccc(=O)n(n1)Cc1cccc(c1)C(=O)N2`, the IC50 in assay [7] is less than 100 nM. In turn, `O=C(Nc1ccc(CN2CCNCC2)c(C(F)(F)F)c1)c1cccc(-c2ccc3nc(NC(=O)C4CC4)sc3n2)c1` came in with an IC50 in [1] of 165 nM.

As to `Cn1cc2c(n1)C(=O)NCC1CN(CCO1)C(=O)OCCn1cc(cn1)-c1cccc(n1)C(=O)N2` (centres undefined), the IC50 in [7] was 100 nM.

Take `CC(C)CCNC(=O)c1ccc2c(c1)nc(Nc1n[nH]c3ccc(-c4ccccc4OC(F)(F)F)cc13)n2C1CCC(O)CC1` (centres undefined): in assay [1], the IC50 was less than 10 nM. `Cc1cc(-c2nc(C(=O)Nc3cc4cn(CCC(C)(C)O)nc4cc3C(C)(C)O)co2)ccn1` came in with an IC50 in [6] of 0.55 nM.
